The results in this text go back to patent publication US9914739B2, “6H-furo[2,3-E]indole compounds for the treatment of hepatitis C” (BRISTOL-MYERS SQUIBB COMPANY, priority 2014, dated 2018).

The subject of the assay is genotype 1b (Con-1) HCV replicon. In words: HCV replicon luciferase assay, genotype 1b. The class given is cell-based. The conditions noted are these: Hepatitis C virus, Huh-7, 72 h, Huh-7 cells with genotype 1b HCV replicon, Renilla luciferase, 3 days incubation. As for the experimental part: The cell lines used to evaluate compounds consist of a human hepatocyte derived cell line (Huh-7) that constitutively expresses a genotype 1b (Con-1) HCV replicon or a genotype 1b (Con-1) HCV replicon with an asparagine replacing the cysteine at amino acid 316, or a genotype 2a (JFH-1) replicon, containing a Renilla luciferase reporter gene. These cells were maintained in Dulbecco's modified Eagle medium (DMEM) containing 10% FBS, 100 U/mL penicillin/streptomycin and 1.0 mg/mL G418.
To evaluate compound efficacy, titrated compounds were transferred to sterile 384-well tissue culture treated plates, and the plates were seeded with HCV replicon cells (50 μL at a density of 2.4×10^3 cells/well) in DMEM containing 4% FBS (final DMSO concentration at 0.5%). After 3 days incubation at 37° C., cells were analyzed for Renilla Luciferase activity using the EnduRen substrate (Promega cat #E6485) according to the manufacturer's directions. Briefly, the EnduRen substrate was diluted in DMEM and then added to the plates to a final concentration of 7.5 μM. The plates were incubated for at least 1 h at 37° C. then read on a Viewlux Imager (PerkinElmer) using a luminescence program. The 50% effective concentration (EC50) was calculated using the four-parameter logistic formula noted above.

Take `CCOC(=O)c1c(-c2ccc(F)cc2)oc2c1cc(OC(C)C)c1[nH]ccc12` [Compound 1001, ethyl 2-(4-fluorophenyl)-5-isopropoxy-6H-furo[2,3-e]indole-3-carboxylate]: the EC50 (class symbol) is over 1 µM.
On to `CNC(=O)c1c(-c2ccc(F)cc2)oc2c1cc(OC(C)C)c1[nH]ccc12` [Compound 1002, 2-(4-fluorophenyl)-5-isopropoxy-N-methyl-6H-furo[2,3-e]indole-3-carboxamide], for which the EC50 (class symbol) was over 1 µM.
The molecule `CNC(=O)c1c(-c2ccc(F)cc2)oc2c1cc(-c1cccc(C(=O)OC)c1)c1[nH]ccc12` [Compound 1003] yielded an EC50 (class symbol) of over 1 µM and an EC50 (numeric value) of 1.46 µM.
For the molecule `CNC(=O)c1c(-c2ccc(F)cc2)oc2c1cc(-c1cccc(C(=O)OC(C)(C)C)c1)c1[nH]ccc12` [Compound 1004, tert-butyl 3-(2-(4-fluorophenyl)-3-(methylcarbamoyl)-6H-furo[2,3-e]indol-5-yl)benzoate], the EC50 (class symbol) lay in the range of 0.1 to 1 µM.
For the molecule `CNC(=O)c1c(-c2ccc(F)cc2)oc2c1cc(-c1cccc(C(=O)NC(C)(C)C)c1)c1[nH]ccc12` [Compound 1005, 5-(3-(tert-butylcarbamoyl)phenyl)-2-(4-fluorophenyl)-N-methyl-6H-furo[2,3-e]indole-3-carboxamide], the EC50 runs as follows: (class symbol) under 0.1 µM; (numeric value) 0.05 µM.
Taken in the same sequence, the figures for `CNC(=O)c1c(-c2ccc(F)cc2)oc2c1cc(-c1cccc(C(=O)NC(C)(C)C)c1)c1[nH]cc(C)c12` [Compound 1006] were 0.1 to 1 µM and 0.51 µM.
Consider `CNC(=O)c1c(-c2ccc(F)cc2)oc2c1cc(-c1cccc(C(=O)NC(C)(C)C)c1)c1[nH]c(-c3ccccc3)cc12` [Compound 1007], for which the concentration giving a half-maximal response (EC50) (class symbol) was 0.1 to 1 µM.
Still for that read-out and setting: the value for `CNC(=O)c1c(-c2ccc(F)cc2)oc2c1cc(-c1cccc(C(=O)NC(C)(C)C)c1)c1[nH]c(C)cc12` [Compound 1008] was 0.1 to 1 µM; that for `CNC(=O)c1c(-c2ccc(F)cc2)oc2c1cc(-c1ccc(OC)c(C(=O)NCC(F)(F)C(F)(F)C(F)(F)F)c1)c1[nH]ccc12` [Compound 1009] was under 0.1 µM.
Under “class symbol”, `CNC(=O)C(=O)c1c[nH]c2c(OC(C)C)cc3c(C(=O)NC)c(-c4ccc(F)cc4)oc3c12` [Compound 2001] came in with a half-maximal effective concentration (EC50) of over 1 µM.
In the case of `CNC(=O)c1c(-c2ccc(F)cc2)oc2c1cc(OC(C)C)c1[nH]cc(C(=O)C(=O)O)c12` [Compound 2002], the EC50 (class symbol) is over 1 µM.
As to `CNC(=O)c1c(-c2ccc(F)cc2)oc2c1cc(-c1cccc(C(=O)NC(C)(C)C)c1)c1[nH]cc(C(=O)C(=O)OC)c12` [Compound 2003, methyl 2-(5-(3-(tert-butylcarbamoyl)phenyl)-2-(4-fluorophenyl)-3-(methylcarbamoyl)-6H-furo[2,3-e]indol-8-yl)-2-oxoacetate], the EC50 is 0.1 to 1 µM (class symbol) and 0.44 µM (numeric value).
For the molecule `CNC(=O)c1c(-c2ccc(F)cc2)oc2c1cc(-c1cccc(C(=O)NC(C)(C)C)c1)c1[nH]cc(C(=O)C(=O)O)c12` [Compound 2004, 2-(5-(3-(tert-butylcarbamoyl)phenyl)-2-(4-fluorophenyl)-3-(methylcarbamoyl)-6H-furo[2,3-e]indol-8-yl)-2-oxoacetic acid], the EC50 (class symbol) was over 1 µM.
`CNC(=O)C(=O)c1c[nH]c2c(-c3cccc(C(=O)NC(C)(C)C)c3)cc3c(C(=O)NC)c(-c4ccc(F)cc4)oc3c12` [Compound 2005]: the EC50 is over 1 µM (class symbol) and 5.16 µM (numeric value).
For the molecule `CNC(=O)c1c(-c2ccc(F)cc2)oc2c1cc(-c1cccc(C(=O)NC(C)(C)C)c1)c1[nH]cc(C(=O)C(=O)N(C)C)c12` [Compound 2006], under “class symbol”, the EC50 was over 1 µM.
Molecule `CNC(=O)c1c(-c2ccc(F)cc2)oc2c1cc(-c1cccc(C(=O)O)c1)c1[nH]ccc12` [Compound 3001, 3-(2-(4-fluorophenyl)-3-(methylcarbamoyl)-6H-furo[2,3-e]indol-5-yl)benzoic acid] came in with a concentration for a half-maximal effect (EC50) (class symbol) of over 1 µM.
Same read-out and setting: next, `CNC(=O)c1c(-c2ccc(F)cc2)oc2c1cc(-c1cccc(C(=O)O)c1)c1c2ccn1C(=O)C(F)(F)F` [Compound 3002, 3-(2-(4-fluorophenyl)-3-(methylcarbamoyl)-6-(2,2,2-trifluoroacetyl)-6H-furo[2,3-e]indol-5-yl)benzoic acid]: over 1 µM.
Molecule `CNC(=O)c1c(-c2ccc(F)cc2)oc2c1cc(-c1cccc(C(=O)NC(C)(C)C)c1)c1c2ccn1C(=O)C(F)(F)F` [Compound 3003] yielded an EC50 (class symbol) of 0.1 to 1 µM and an EC50 (numeric value) of 0.2 µM.
On to `CNC(=O)c1c(-c2ccc(F)cc2)oc2c1cc(-c1cccc(C(=O)NCC(C)(C)C)c1)c1[nH]ccc12` [Compound 4001, 2-(4-fluorophenyl)-N-methyl-5-(3-(neopentylcarbamoyl)phenyl)-6H-furo[2,3-e]indole-3-carboxamide], for which the EC50 is under 0.1 µM (class symbol) and 0.083 µM (numeric value).
With `CNC(=O)c1c(-c2ccc(F)cc2)oc2c1cc(-c1cccc(C(=O)NC34CC(C3)C4)c1)c1[nH]ccc12` [Compound 4002], where the note is “class symbol”, the EC50 was under 0.1 µM.
Still for that read-out and setting: next, `CNC(=O)c1c(-c2ccc(F)cc2)oc2c1cc(-c1cccc(C(=O)NC(C)(C)CCO)c1)c1[nH]ccc12` [Compound 4003]: under 0.1 µM; `CNC(=O)c1c(-c2ccc(F)cc2)oc2c1cc(-c1cccc(C(=O)NC(C)(C)C(=O)OC)c1)c1[nH]ccc12` [Compound 4004]: under 0.1 µM.
With `CNC(=O)c1c(-c2ccc(F)cc2)oc2c1cc(-c1cccc(C(=O)NCC(C)(F)F)c1)c1[nH]ccc12` [Compound 4005], the EC50 by setting is: (class symbol) 0.1 to 1 µM; (numeric value) 0.15 µM.
Where the note is “class symbol”, `CNC(=O)c1c(-c2ccc(F)cc2)oc2c1cc(-c1cccc(C(=O)NC3(c4ncccn4)CC3)c1)c1[nH]ccc12` [Compound 4006] registered an EC50 of under 0.1 µM.
As to `CNC(=O)c1c(-c2ccc(F)cc2)oc2c1cc(-c1cccc(C(=O)NCC(F)(F)C(F)(F)C(F)(F)F)c1)c1[nH]ccc12` [Compound 4007], the EC50 is under 0.1 µM (class symbol) and 0.049 µM (numeric value).
Taken in the same sequence, the figures for `CNC(=O)c1c(-c2ccc(F)cc2)oc2c1cc(-c1cccc(C(=O)NCC(C)(C)CO)c1)c1[nH]ccc12` [Compound 4008] were 0.1 to 1 µM and 0.13 µM.
As to `CNC(=O)c1c(-c2ccc(F)cc2)oc2c1cc(-c1cccc(C(=O)NCC(C)(C)c3ccc(Cl)cc3)c1)c1[nH]ccc12` [Compound 4009, 5-(3-((2-(4-chlorophenyl)-2-methylpropyl)carbamoyl)phenyl)-2-(4-fluorophenyl)-N-methyl-6H-furo[2,3-e]indole-3-carboxamide], the EC50 (class symbol) lay in the range of 0.1 to 1 µM.
Turning to `CNC(=O)c1c(-c2ccc(F)cc2)oc2c1cc(-c1cccc(C(=O)NC(C)(C)c3ccc(Cl)cc3)c1)c1[nH]ccc12` [Compound 4010], the EC50 is, setting by setting: (class symbol) under 0.1 µM; (numeric value) 0.027 µM.
`CNC(=O)c1c(-c2ccc(F)cc2)oc2c1cc(-c1cccc(C(=O)NCC3(CO)CCC3)c1)c1[nH]ccc12` [Compound 4011]: for the setting “class symbol”, the 50% effective concentration (EC50) lay within 0.1 to 1 µM.
On the same count and under the same terms, the value for `CNC(=O)c1c(-c2ccc(F)cc2)oc2c1cc(-c1cccc(C(=O)NC3(C(=O)OC)CCC3)c1)c1[nH]ccc12` [Compound 4012] was 0.1 to 1 µM; that for `C#CC(C)(C)NC(=O)c1cccc(-c2cc3c(C(=O)NC)c(-c4ccc(F)cc4)oc3c3cc[nH]c23)c1` [Compound 4013] was under 0.1 µM; that for `CNC(=O)c1c(-c2ccc(F)cc2)oc2c1cc(-c1cccc(C(=O)NCC(C)(C)c3ccccc3)c1)c1[nH]ccc12` [Compound 4016] was 0.1 to 1 µM.
